# Data: patent US9149038B2, “4-amino-6-(heterocyclic)picolinates and 6-amino-2-(heterocyclic)pyrimidine-4-carboxylates and their use as herbicides” (Dow AgroSciences LLC, priority 2013, dated 2015)
# Read-outs that look alike come from different tables or passages of the source.
# Experiments:
# [1] = system: Key Broadleaf Weed and Crop Species; assay: Post-Emergent Test II: postemergent herbicidal activity, visual rating after 14 d (Table 7); assay type: in vivo; settings: post-emergence, 336 h; for pest or weed control at 35 g/ha: 35 g ai/ha; for pest or weed control at 70 g/ha: 70 g ai/ha; for pest or weed control at 140 g/ha: 140 g ai/ha
# Outline: (§1)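 Track-sprayed young seedlings (first/second true leaf) at 187 L/ha across a 2-fold rate series from the high rate down to 1/16×. Kept in greenhouse at 23-29° C day, subirrigated. Injury rated by eye after 14 d, 0 = no injury, 100 = complete kill.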
# [2] = system: Key Grass and Sedge Weeds as well as Grass Crops; assay: Post-Emergent Test II: postemergent herbicidal activity, visual rating after 14 d (Table 8); assay type: in vivo; settings: post-emergence, 336 h; for pest or weed control at 35 g/ha: 35 g ai/ha; for pest or weed control at 70 g/ha: 70 g ai/ha; for pest or weed control at 140 g/ha: 140 g ai/ha
# Outline: as §1
# [3] = lambsquarters (Chenopodium album), read-out: Visual Growth Reduction (%) 14 Days After Application CHEAL
# [4] = oilseed rape, canola (Brassica napus), read-out: Visual Growth Reduction (%) 14 Days After Application BRSNN
# [5] = redroot pigweed (Amaranthus retroflexus), read-out: Visual Growth Reduction (%) 14 Days After Application AMARE
# [6] = sunflower (Helianthus annuus), read-out: Visual Growth Reduction (%) 14 Days After Application HELAN
# [7] = velvetleaf (Abutilon theophrasti), read-out: Visual Growth Reduction (%) 14 Days After Application ABUTH
# [8] = wild poinsettia (Euphorbia heterophylla), read-out: Visual Growth Reduction (%) 14 Days After Application EPHHL
# [9] = barnyardgrass (Echinochloa crus-galli), read-out: Visual Growth Reduction (%) 14 Days After Application ECHCG
# [10] = giant foxtail (Setaria faberi), read-out: Visual Growth Reduction (%) 14 Days After Application SETFA
# [11] = maize, corn (Zea mays), read-out: Visual Growth Reduction (%) 14 Days After Application ZEAMX
# [12] = rice (Oryza sativa), read-out: Visual Growth Reduction (%) 14 Days After Application ORYSA
# [13] = wheat, spring (Triticum aestivum), read-out: Visual Growth Reduction (%) 14 Days After Application TRZAS
# [14] = yellow nutsedge (Cyperus esculentus), read-out: Visual Growth Reduction (%) 14 Days After Application CYPES
smiles,measurement,setting,value
Nc1c(F)c(-c2ccc(F)c3c2OC(F)(F)O3)nc(C(=O)O)c1Cl [Compound 77],pest or weed control at 35 g/ha,[1]; [3],85 to 94%
same,pest or weed control at 70 g/ha,[1]; [3],95 to 100%
same,pest or weed control at 140 g/ha,[1]; [3],95 to 100%
same,pest or weed control at 35 g/ha,[1]; [4],75 to 84%
same,pest or weed control at 70 g/ha,[1]; [4],85 to 94%
same,pest or weed control at 140 g/ha,[1]; [4],95 to 100%
same,pest or weed control at 35 g/ha,[1]; [5],95 to 100%
same,pest or weed control at 70 g/ha,[1]; [5],95 to 100%
same,pest or weed control at 140 g/ha,[1]; [5],95 to 100%
same,pest or weed control at 35 g/ha,[1]; [6],85 to 94%
same,pest or weed control at 70 g/ha,[1]; [6],95 to 100%
same,pest or weed control at 140 g/ha,[1]; [6],95 to 100%
same,pest or weed control at 35 g/ha,[1]; [7],30 to 44%
same,pest or weed control at 70 g/ha,[1]; [7],60 to 74%
same,pest or weed control at 140 g/ha,[1]; [7],75 to 84%
same,pest or weed control at 35 g/ha,[1]; [8],0 to 29%
same,pest or weed control at 70 g/ha,[1]; [8],0 to 29%
same,pest or weed control at 140 g/ha,[1]; [8],0 to 29%
same,pest or weed control at 35 g/ha,[2]; [9],0 to 29%
same,pest or weed control at 70 g/ha,[2]; [9],0 to 29%
same,pest or weed control at 140 g/ha,[2]; [9],0 to 29%
same,pest or weed control at 35 g/ha,[2]; [10],0 to 29%
same,pest or weed control at 70 g/ha,[2]; [10],0 to 29%
same,pest or weed control at 140 g/ha,[2]; [10],0 to 29%
same,pest or weed control at 35 g/ha,[2]; [11],0 to 29%
same,pest or weed control at 70 g/ha,[2]; [11],0 to 29%
same,pest or weed control at 140 g/ha,[2]; [11],0 to 29%
same,pest or weed control at 35 g/ha,[2]; [12],0 to 29%
same,pest or weed control at 70 g/ha,[2]; [12],0 to 29%
same,pest or weed control at 140 g/ha,[2]; [12],0 to 29%
same,pest or weed control at 35 g/ha,[2]; [13],45 to 59%
same,pest or weed control at 70 g/ha,[2]; [13],60 to 74%
same,pest or weed control at 140 g/ha,[2]; [13],60 to 74%
same,pest or weed control at 35 g/ha,[2]; [14],0 to 29%
same,pest or weed control at 70 g/ha,[2]; [14],0 to 29%
same,pest or weed control at 140 g/ha,[2]; [14],0 to 29%
